Assay results from US20260217763A1, “Novel Peptide and Use Thereof” (Zincure Corp., priority 2022, published 2026).
Entries after “also recorded” stand apart in the source; their conditions may differ.

How the values were obtained:
Format in all cases: cell-based
[1] = tested on: EGFP-SOD1 G93A aggregates in HEK293T cell line; experiment: SOD1 protein aggregates after SOD1 overexpression, Western blot; conditions: bafilomycin 100 nM alone compared to the control
Procedure: (§1) FIG. 3A is a result of Western blot analysis of the level of SOD1 protein expression in protein samples obtained 18 h after treatment of HEK293T cells transfected to express SOD1 with 100 nM bafilomycin A1 alone or in combination with 30 μM of some variant alloferon peptides according to one embodiment of the present invention, for investigating the degradation of SOD1 protein aggregates by treatment with some variant alloferon peptides (DALS1, DAL-VS_V(−Q), DAL1, and DALV2) according to one embodiment of the present invention. FIG. 3B is a graph representing the results of quantifying relative expression of the SOD1 protein. In FIG. 3B, * indicates a significant difference compared to the treatment with bafilomycin alone (* p<0.05).
(§2) The present inventors then investigated whether some of the variant peptides (DALS1, DALVS_V, DAL1, DALV2) comprising the amino acid sequences designated as SEQ ID NO: 3 through 16 could resolve SOD1 aggregates that formed after transient transfection of SOD1 protein into the 293T cell line. To this end, EGFP-SOD1 G93A DNA was transiently transfected into the HEK293T cell line using Lipofectamine 2000. After transfection, the cell lines were incubated in a cell culture machine at 37° C. and 5% CO2 for 30 h, and the culture medium was replaced with Minimum Essential Medium (MEM, Gibco, USA). Subsequently, the cells were pretreated with 100 nM bafilomycin for 30 min, which were then treated with μM variant alloferon peptide and incubated for 18 h. After that, proteinase inhibitors and phosphatase inhibitors (2 μg/ml aprotinin, 2 μg/ml leupeptin, 1 μg/ml pepstatin A, 1 mM phenyl-methylsulfonyl fluoride (PMSF), 1 mM Na3 VO4, 5 mM NaF and 10 mM Na4P2O7) were put into a 6-well culture dish at 200 μl per well to lyse the cells. The obtained cell lysate was first left at 30 min for 4° C. Then, it was subjected to protein quantification using BCA protein assay kit (Pierce Biotechnology, USA), and centrifuged at 17,000×g for 20 min, where the supernant was discarded and only the cell debris was taken to obtain protein. Subsequently, 5× sample buffer (300 mM Tris, pH 6.8, 10% SDS, 50% Glycerol, 0.1% BPB, 2.5% Mercaptoethanol, 100 mM DTT) was mixed with the quantified sample, denatured at 95° C. for 5 min, and prepared for analysis. Then, electrophoresis was performed using 8% to 15% SDS-polyacrylamide gel, and the proteins separated by their sizes were transferred to polyvinylidene difluoride (PVDF) membranes (Millipore, USA). The protein-transferred membranes were then blocked with 3% skim milk powder in TBST for 1 h. […] Protein signals were detected using enhanced chemiluminescence (INTRON Biotechnology, South Korea) and a bio-imaging system (MF-Chemibis, Shimadzu Scientific Korea Corporation, South Korea).

[2] = tested on: EGFP-Tau P301L aggregates in HEK293T cell line; experiment: Mutant tau protein aggregates after overexpression, Western blot; conditions: bafilomycin 100 nM alone compared to control
Procedure: as §1, with “FIG. 4A” for “FIG. 3A”, “of tau” for “of SOD1”, “express tau protein” for “express SOD1”, “FIG. 4B” for “FIG. 3B”, “the tau” for “the SOD1”, “protein. […]” for “protein. In FIG. 3B, * indicates a significant difference compared to the treatment with bafilomycin alone (* p<0.05).”
The present inventors then investigated whether some of the variant peptides (DALS1, DALVS_V, DAL1, DALV2) comprising the amino acid sequences designated as SEQ ID NO: 3 through 16 could resolve SOD1 aggregates that formed after transient transfection of SOD1 protein into the 293T cell line. […] Then, it was subjected to protein quantification using BCA protein assay kit (Pierce Biotechnology, USA), and centrifuged at 17,000×g for 20 min, where the supernant was discarded and only the cell debris was taken to obtain protein. Subsequently, 5× sample buffer (300 mM Tris, pH 6.8, 10% SDS, 50% Glycerol, 0.1% BPB, 2.5% Mercaptoethanol, 100 mM DTT) was mixed with the quantified sample, denatured at 95° C. for 5 min, and prepared for analysis. […]

[3] = tested on: GFP-mHttQ74 aggregates in HEK293T cell line; experiment: Mutant huntingtin protein aggregates after overexpression, Western blot; conditions: bafilomycin 100 nM alone compared to the control
Procedure: (§3) FIG. 6 is a result of Western blot analysis of the level of mutant huntingtin protein expression in protein samples obtained 18 h after treatment of HEK293T cells transfected to express mutant huntingtin protein with 100 nM bafilomycin A1 alone or in combination with 30 μM of some variant alloferon peptides according to one embodiment of the present invention, for investigating the degradation of mutant huntingtin protein aggregates by treatment with some variant alloferon peptides (DALS1, DAL-VS_V(−Q), DAL1, and DALV2) according to one embodiment of the present invention.
as §2, with “After that, proteinase inhibitors and phosphatase inhibitors (2 μg/ml aprotinin, 2 μg/ml leupeptin, 1 μg/ml pepstatin A, 1 mM phenyl-methylsulfonyl fluoride (PMSF), 1 mM Na3 VO4, 5 mM NaF and 10 mM Na4P2O7) were put into a 6-well culture dish at 200 μl per well to lyse the cells. The obtained cell lysate was first left at 30 min for 4° C.” left out, “analysis.” for “analysis. Then, electrophoresis was performed using 8% to 15% SDS-polyacrylamide gel, and the proteins separated by their sizes were transferred to polyvinylidene difluoride (PVDF) membranes (Millipore, USA). The protein-transferred membranes were then blocked with 3% skim milk powder in TBST for 1 h.”, “Korea). […]” for “Korea).”

[4] = tested on: EGFP-α-synuclein A53T aggregates in HEK293T cell line; experiment: α-synuclein protein aggregates after overexpression, Western blot; conditions: bafilomycin 100 nM alone compared to the control
Procedure: as §3, with “FIG. 5” for “FIG. 6”, “of α-synuclein” for “of mutant huntingtin”, “express α-synuclein” for “express mutant huntingtin protein”, “30 µM” for “30 μM”
as §2, with “After that, proteinase inhibitors and phosphatase inhibitors (2 μg/ml aprotinin, 2 μg/ml leupeptin, 1 μg/ml pepstatin A, 1 mM phenyl-methylsulfonyl fluoride (PMSF), 1 mM Na3 VO4, 5 mM NaF and 10 mM Na4P2O7) were put into a 6-well culture dish at 200 μl per well to lyse the cells. The obtained cell lysate was first left at 30 min for 4° C.” left out, “analysis.” for “analysis. Then, electrophoresis was performed using 8% to 15% SDS-polyacrylamide gel, and the proteins separated by their sizes were transferred to polyvinylidene difluoride (PVDF) membranes (Millipore, USA). The protein-transferred membranes were then blocked with 3% skim milk powder in TBST for 1 h.”, “Korea). […]” for “Korea).”

[5] = tested on: H4 cell lines (GL-H4) expressing GFP-linked LC3; experiment: Analysis of autophagic flow blocked by bafilomycin A-1 (LC3-GFP spots); conditions: bafilomycin (Baf A1) 100 nM alone, GL-H4 cells
Procedure: FIGS. 2A to 2C are series of fluorescence micrographs of LC3-GFP spots 12 h after treating H4 cell line (GL-H4) that stably overexpresses GFP-LC3 protein with various variant alloferon peptides according to one embodiment of the present invention in combination with bafilomycin at a concentration of 20 μM, showing that autophagic flux blocked by bafilomycin A-1 is restored by the variant alloferon peptides according to one embodiment of the present invention. FIGS. 2D to 2F are graphs showing quantification of the fluorescence intensity of LC3-GFP spots 12 h after treatment of the GL-H4 cell line with the variant alloferon peptides according to one embodiment of the present invention in combination with bafilomycin at a concentration of 20 μM.
H4 cell line (GL-H4) and HEK293T cell line permanently transfected with GFP-LC3 plasmid were used in the present invention. The cell culture medium was Minimum Essential Medium (MEM, WellGene) supplemented with 10% fetal bovine serum (Hyclone, USA) and antibiotic and antifungal mixture (WellGene, Korea) and cultured in a cell culture machine at 37° C. and 5% CO2.
To investigate the effect of peptides comprising the amino acid sequences designated as SEQ ID NO: 3 to 16 on autophagic flow, the present inventors treated H4 cell lines (GL-H4) expressing GFP-linked LC3 with the peptides (20 μM) and/or the autophagic inhibitor Bafilomycin A-1 (Baf A1, 100 nM) to inhibit autophagy, and then the effect of the variant alloferon peptides according to one embodiment of the present invention was investigated by fluorescence microscopy analysis.

For `CO/C1=C\C(C)=C\[C@@H](C)[C@@H](O)[C@@H](C)C/C(C)=C/C=C/[C@H](OC)[C@@H]([C@@H](C)[C@@H](O)[C@H](C)[C@@]2(O)C[C@@H](O)[C@H](C)[C@@H](C(C)C)O2)OC1=O` [bafilomycin, Bafilomycin A-1, reference compound], the SOD1 protein aggregates [1] was “increased”, the “mutant tau protein aggregates” value [2] was “increased” and the “mutant huntingtin protein aggregates” value [3] was “increased”. For the same compound, the α-synuclein protein aggregates [4] was “increased” and the “number and size of LC3 spots” value [5] was “significantly increased; also recorded: significant increase in the number and size of LC3 spots”.
